Tests used:
[1] = target: T1, HCV NS3 domain of genotype 4a (Hepatitis C virus genotype 4a, UniProt O39929); assay: Binding assay by Differential Static Light Scattering (DSLS): aggregation temperature of NS3; settings: for ΔTagg (aggregation temperature shift of NS3): NS3 domain 15.0 μM with equimolar compound, shift against NS3 alone
T1 construct: NS3 protease domain 1-181 aa+N-terminal T7 tag and C-terminal His tag; T7 tag (N); made in house; host or cells: E. coli Rosette (DE3) pLysS
Text: In an embodiment, DSLS (Senisterra, Markin et al. 2006) is a preferred method to compare the relative binding potency for binding of a compound of Formula I with HCV NS3. DSLS measure the proteins aggregation temperature (Tagg) as an indicator of its stability (Davis, Walker et al. 2010). It is known that the binding of small molecules to proteins causes shifts of the aggregation temperature (ΔTagg) to higher temperature (Shahul Hameed, Haider et al. 2018). One aspect of this invention is using ΔTagg determination as a method to determine the potency of binding of compounds belonging to formula I to the HCV NS3 protease, in comparison to the native NS4A.
The NS3 domain (15.0 μM), alone or mixed with an equimolar equivalent of tested compound or the NS4A, was added to a binding buffer (20.0 mM HEPES, 10.0 mM DTT, 200 mM NaCl, pH 7.60) to a final volume 100 μL. The mixture was incubated at room temperature with gentle shaking for 2 h. Afterwards, 10 μL of the mixture was transferred into a clear bottomed Nunc 384-well plate and covered by 10 μL paraffin oil to minimize evaporation. Protein aggregation was monitored by tracking the change in scattered light that was detected by a charged coupled device (CCD) camera. Snapshot images of the plate were taken every 0.5° C. The pixel intensities in a preselected region of each well were integrated using image analysis software to generate a value representative of the total amount of scattered light in that region. These intensities were then plotted against temperature for each sample well and fitted to obtain the aggregation temperature (Tagg). Aggregation was monitored and analyzed to assess the effect of NS4A and its synthetic analogues on the stability of the NS3 as an indicator of binding. Each experiment was repeated three times (Triplicate). Statistical analysis was performed using GraphPad Prism v. 8.0® and Instat® v. 3.10 software. The Tagg for the compound was only considered if its […] of the calculated Tagg value.
Each experiment was run as triplicate (Experiment 1, 2 and 3) and the standard deviations (ST.DEV.) were calculated. (results table FIG. 31).

HCV NS3 = HCV NS3 (Hepatitis C virus genotype 4a, UniProt O39929); settings: mixed with a substrate peptide; cited from earlier work

SMILES	ΔTagg (aggregation temperature shift of NS3) [1] [°C]	also measured
CCCCCCNCc1ncc(C(=O)NCc2ccccn2)[nH]1 [Comp 3, 2-((hexylamino)methyl)-N-(pyridin-2-ylmethyl)-1H-imidazole-5-carboxamide]	0.47	–
CNC(=O)CNC(=O)c1cnc(CNCCNC(C)=O)[nH]1 [Comp 8, 2-(((2-acetamidoethyl)amino)methyl)-N-(2-(methylamino)-2-oxoethyl)-1H-imidazole-5-carboxamide]	0.48	–
CCCCCCNCc1nc(C(=O)NCc2ccccn2)c[nH]1 [Comp 9, 2-((hexylamino)methyl)-N-(pyridin-2-ylmethyl)-1H-imidazole-4-carboxamide]	0.91	–
O=C(NCc1ccccn1)c1cnc(CNCCOC2CCCCC2)[nH]1 [Comp 10, 2-(((2-(cyclohexyloxy)ethyl)amino)methyl)-N-(pyridin-2-ylmethyl)-1H-imidazole-5-carboxamide]	0.43	–
CC(C)CCCCCNCc1ncc(C(=O)NCc2ccccn2)[nH]1 [Comp 12, 2-(((6-methylheptyl)amino)methyl)-N-(pyridin-2-ylmethyl)-1H-imidazole-5-carboxamide]	0.57	–
CC(=O)NCCNCc1nc(C(=O)NCc2ccccn2)c[nH]1 [Comp 13, 2-(((2-acetamidoethyl)amino)methyl)-N-(pyridin-2-ylmethyl)-1H-imidazole-5-carboxamide]	1.35	affinity towards the HCV NS3 protein compared to the native viral peptide cofactor NS4A ([1]; DSLS, FIG. 30-32): equal or higher affinity; Tagg (aggregation temperature of NS3 mixed with the substance) ([1]; NS3 domain 15.0 μM with equimolar substance, incubated 2 h, triplicate, NS3 alone Tagg 43.22° C.): 44.40 °C; ΔTagg higher than that of the HCV NS4A ([1]; relative to the shift caused by NS4A): 14%
CCCCCCNC(=O)c1ncc(C(=O)NCCCCNC(=N)N)[nH]1 [N5-(4-guanidinobutyl)-N2-n-hexyl-1H-imidazole-2,5-dicarboxamide]	–	inhibition of HCV NS3 protease function (HCV NS3): able to inhibit the HCV NS3 from functioning as a protease
